The subject of the data set is CCRIS mutagenicity, Ames/micronucleus/aberration tests. The data set is described as follows: CCRIS mutagenicity studies.
[1] abbreviates: Test System: AMES SALMONELLA TYPHIMURIUM, Strain/Indicator: TA98, Metabolic Activation: NONE, Method: PREINCUBATION
Where [2] appears, read: Test System: AMES SALMONELLA TYPHIMURIUM, Strain/Indicator: TA1535, Metabolic Activation: NONE, Method: PREINCUBATION

The source made the active and inactive calls. The rule behind the calls is not given here.

Take `CCCCC(CC)COCC1CO1` (stereo unspecified): the mutagenic call is “inactive; negative” (Test System: AMES SALMONELLA TYPHIMURIUM, Strain/Indicator: TA97, Metabolic Activation: HAMSTER, LIVER, S-9, AROCLOR 1254 (10%), Method: PREINCUBATION); “inactive; negative” (Test System: AMES SALMONELLA TYPHIMURIUM, Strain/Indicator: TA97, Metabolic Activation: NONE, Method: PREINCUBATION); “inactive; negative” (Test System: AMES SALMONELLA TYPHIMURIUM, Strain/Indicator: TA97, Metabolic Activation: RAT, LIVER, S-9, AROCLOR 1254 (10%), Method: PREINCUBATION); “inactive; negative” (Test System: AMES SALMONELLA TYPHIMURIUM, Strain/Indicator: TA98, Metabolic Activation: HAMSTER, LIVER, S-9, AROCLOR 1254 (10%), Method: PREINCUBATION); “inactive; negative” under setting [1]; “inactive; negative” (Test System: AMES SALMONELLA TYPHIMURIUM, Strain/Indicator: TA98, Metabolic Activation: RAT, LIVER, S-9, AROCLOR 1254 (10%), Method: PREINCUBATION). The mutagenic call by setting is: (Test System: AMES SALMONELLA TYPHIMURIUM, Strain/Indicator: TA100, Metabolic Activation: HAMSTER, LIVER, S-9, AROCLOR 1254 (10%), Method: PREINCUBATION) “inactive; negative”; (Test System: AMES SALMONELLA TYPHIMURIUM, Strain/Indicator: TA100, Metabolic Activation: NONE, Method: PREINCUBATION) “inactive; negative”; (Test System: AMES SALMONELLA TYPHIMURIUM, Strain/Indicator: TA100, Metabolic Activation: RAT, LIVER, S-9, AROCLOR 1254 (5 OR 30%), Method: PREINCUBATION) “inactive; negative”; (Test System: AMES SALMONELLA TYPHIMURIUM, Strain/Indicator: TA100, Metabolic Activation: RAT, LIVER, S-9, AROCLOR 1254 (30%), Method: PREINCUBATION) “inactive; negative”; (Test System: AMES SALMONELLA TYPHIMURIUM, Strain/Indicator: TA1535, Metabolic Activation: HAMSTER, LIVER, S-9, AROCLOR 1254 (10%), Method: PREINCUBATION) “inactive; negative”; under setting [2], “inactive; negative”. The mutagenic call is, setting by setting: (Test System: AMES SALMONELLA TYPHIMURIUM, Strain/Indicator: TA1535, Metabolic Activation: RAT, LIVER, S-9, AROCLOR 1254 (5% & 10%), Method: PREINCUBATION) “active; positive”; (Test System: AMES SALMONELLA TYPHIMURIUM, Strain/Indicator: TA1535, Metabolic Activation: RAT, LIVER, S-9, AROCLOR 1254 (5 OR 10%), Method: PREINCUBATION) “active; positive”; (Test System: AMES SALMONELLA TYPHIMURIUM, Strain/Indicator: TA1535, Metabolic Activation: RAT, LIVER, S-9, AROCLOR 1254 (30%), Method: PREINCUBATION) “inactive; negative”.
Turning to `C/C=C/C=C/C=O`, the mutagenic call was “inactive; negative” (Test System: AMES SALMONELLA TYPHIMURIUM, Strain/Indicator: TA98, Metabolic Activation: HAMSTER LIVER S-9, AROCLOR 1254 (30%), Method: PREINCUBATION); “inactive; negative” (Test System: AMES SALMONELLA TYPHIMURIUM, Strain/Indicator: TA98, Metabolic Activation: HAMSTER, LIVER, S-9, AROCLOR 1254, Method: STANDARD PLATE); “inactive; negative” under setting [1]; “inactive; negative” (Test System: AMES SALMONELLA TYPHIMURIUM, Strain/Indicator: TA98, Metabolic Activation: NONE, Method: STANDARD PLATE); “inactive; negative” (Test System: AMES SALMONELLA TYPHIMURIUM, Strain/Indicator: TA98, Metabolic Activation: RAT LIVER S-9, AROCLOR 1254 (30%), Method: PREINCUBATION); “inactive; negative” (Test System: AMES SALMONELLA TYPHIMURIUM, Strain/Indicator: TA98, Metabolic Activation: RAT, LIVER, S-9, AROCLOR 1254, Method: STANDARD PLATE). In addition, the mutagenic call by setting is: (Test System: AMES SALMONELLA TYPHIMURIUM, Strain/Indicator: TA100, Metabolic Activation: HAMSTER LIVER S-9, AROCLOR 1254 (5%), Method: PREINCUBATION) “active; positive”; (Test System: AMES SALMONELLA TYPHIMURIUM, Strain/Indicator: TA100, Metabolic Activation: HAMSTER LIVER S-9, AROCLOR 1254 (10%), Method: PREINCUBATION) “active; positive”; (Test System: AMES SALMONELLA TYPHIMURIUM, Strain/Indicator: TA100, Metabolic Activation: HAMSTER, LIVER, S-9, AROCLOR 1254, Method: STANDARD PLATE) “inactive; negative”; (Test System: AMES SALMONELLA TYPHIMURIUM, Strain/Indicator: TA100, Metabolic Activation: NONE, Method: PREINCUBATION (THREEFOLD CELL DENSITY)) “active; positive”; (Test System: AMES SALMONELLA TYPHIMURIUM, Strain/Indicator: TA100, Metabolic Activation: NONE, Method: STANDARD PLATE) “inactive; negative”; (Test System: AMES SALMONELLA TYPHIMURIUM, Strain/Indicator: TA100, Metabolic Activation: RAT LIVER S-9, AROCLOR 1254 (5%), Method: PREINCUBATION) “active; positive”. Further, the mutagenic call is, setting by setting: (Test System: AMES SALMONELLA TYPHIMURIUM, Strain/Indicator: TA100, Metabolic Activation: RAT LIVER S-9, AROCLOR 1254 (10%), Method: PREINCUBATION) “active; positive”; (Test System: AMES SALMONELLA TYPHIMURIUM, Strain/Indicator: TA100, Metabolic Activation: RAT, LIVER, S-9, AROCLOR 1254, Method: PREINCUBATION) “active; positive”; (Test System: AMES SALMONELLA TYPHIMURIUM, Strain/Indicator: TA100, Metabolic Activation: RAT, LIVER, S-9, AROCLOR 1254, Method: PREINCUBATION (THREEFOLD CELL DENSITY)) “active; positive”; (Test System: AMES SALMONELLA TYPHIMURIUM, Strain/Indicator: TA100, Metabolic Activation: RAT, LIVER, S-9, AROCLOR 1254, Method: STANDARD PLATE) “inactive; negative”; (Test System: AMES SALMONELLA TYPHIMURIUM, Strain/Indicator: TA104, Metabolic Activation: NONE, Method: PREINCUBATION) “active; positive”; (Test System: AMES SALMONELLA TYPHIMURIUM, Strain/Indicator: TA1535, Metabolic Activation: HAMSTER LIVER S-9, AROCLOR 1254 (30%), Method: PREINCUBATION) “inactive; negative”. Moreover, the mutagenic call by setting is: (Test System: AMES SALMONELLA TYPHIMURIUM, Strain/Indicator: TA1535, Metabolic Activation: HAMSTER, LIVER, S-9, AROCLOR 1254, Method: STANDARD PLATE) “inactive; negative”; under setting [2], “inactive; negative”; (Test System: AMES SALMONELLA TYPHIMURIUM, Strain/Indicator: TA1535, Metabolic Activation: NONE, Method: STANDARD PLATE) “inactive; negative”; (Test System: AMES SALMONELLA TYPHIMURIUM, Strain/Indicator: TA1535, Metabolic Activation: RAT LIVER S-9, AROCLOR 1254 (30%), Method: PREINCUBATION) “inactive; negative”; (Test System: AMES SALMONELLA TYPHIMURIUM, Strain/Indicator: TA1535, Metabolic Activation: RAT, LIVER, S-9, AROCLOR 1254, Method: STANDARD PLATE) “inactive; negative”; (Test System: AMES SALMONELLA TYPHIMURIUM, Strain/Indicator: TA1537, Metabolic Activation: HAMSTER, LIVER, S-9, AROCLOR 1254, Method: STANDARD PLATE) “inactive; negative”. Besides, the mutagenic call (Test System: AMES SALMONELLA TYPHIMURIUM, Strain/Indicator: TA1537, Metabolic Activation: NONE, Method: STANDARD PLATE) was “inactive; negative”; the mutagenic call (Test System: AMES SALMONELLA TYPHIMURIUM, Strain/Indicator: TA1537, Metabolic Activation: RAT, LIVER, S-9, AROCLOR 1254, Method: STANDARD PLATE) was “inactive; negative”; the mutagenic call (Test System: AMES SALMONELLA TYPHIMURIUM, Strain/Indicator: TA1538, Metabolic Activation: HAMSTER, LIVER, S-9, AROCLOR 1254, Method: STANDARD PLATE) is “inactive; negative”; the mutagenic call (Test System: AMES SALMONELLA TYPHIMURIUM, Strain/Indicator: TA1538, Metabolic Activation: NONE, Method: STANDARD PLATE) was “inactive; negative”; the mutagenic call (Test System: AMES SALMONELLA TYPHIMURIUM, Strain/Indicator: TA1538, Metabolic Activation: RAT, LIVER, S-9, AROCLOR 1254, Method: STANDARD PLATE) was “inactive; negative”; the mutagenic call (Test System: MOUSE LYMPHOMA, Strain/Indicator: L5178Y (TK+/TK-), Metabolic Activation: NONE, Method: SUSPENSION/PLATE) is “active; positive. reevaluation of results: positive”. For the same compound, the mutagenic call (Test System: MOUSE LYMPHOMA, Strain/Indicator: L5178Y (TK+/TK-), Metabolic Activation: RAT, LIVER, S-9, AROCLOR 1254, Method: SUSPENSION/PLATE) was “inactive; negative. reevaluation of results: negative”.
